Test results reported in the supplement of paper PMC12317010.
Structures can show the parent of a compound that is named as a salt.

Experiment: collision cross section in nitrogen (drift tube, single-field); higher = larger gas-phase ion size
[1] = ion type: [M-H], ion source: ESI, ion mode: Negative
[2] = ion type: [M+Na], ion source: ESI, ion mode: Positive
[3] = ion type: [M+H], ion source: APCI, ion mode: Positive
[4] = ion type: [M+H], ion source: ESI, ion mode: Positive
[5] = ion type: [M+], ion source: APCI, ion mode: Positive
[6] = ion source: ESI, ion mode: Positive, ion type: [M]+ (permanent cation)
[7] = ion source: APCI, ion mode: Positive, ion type: [M]+ (permanent cation)
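Also: chemical standards at 10 µM analysed by drift tube IMS-QTOF MS in about 3.95 torr nitrogen, mean of duplicate injections differing ≤1%, mass error below 10 ppm.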

SMILES | collision cross section in nitrogen [1] | collision cross section in nitrogen [2] | collision cross section in nitrogen [3] | collision cross section in nitrogen [4] | further results
CCCCOC(=O)CC(CC(=O)OCCCC)(OC(C)=O)C(=O)OCCCC [Acetyl tributyl citrate] | – | 207 Å² | – | – | –
CC1(C)O[C@@H]2C[C@H]3[C@@H]4C[C@H](F)C5=CC(=O)C=C[C@]5(C)[C@@]4(F)[C@@H](O)C[C@]3(C)[C@]2(C(=O)CO)O1 [Fluocinolone acetonide] | 194.2 Å² | 226.8 Å² | – | – | –
CCC(C)(C)c1ccc(O)cc1 [4-(2-Methylbutan-2-yl)phenol] | 143.8 Å² | – | – | – | –
CC(=O)Nc1ccc(C)cc1C [N-(2,4-Dimethylphenyl)acetamide] | – | – | – | 136.2 Å² | –
CCCCCCCC(=O)N(C)C [N,N-Dimethyloctanamide] | – | – | 146.6 Å² | 146.8 Å² | –
C[C@@H]1C[C@H]2[C@@H]3CCC4=CC(=O)C=C[C@]4(C)[C@@]3(F)[C@@H](O)C[C@]2(C)[C@@]1(O)C(=O)CO [Dexamethasone] | – | 216.8 Å² | – | 177.6 Å² | –
Cc1cc(Cc2ccc(N)c(C)c2)ccc1N [4,4'-Methylenebis(o-toluidine)] | – | – | 179.1 Å² | 171.2 Å² | –
CCCCCCCCCCCCCCOS(=O)(=O)O [Sodium myristyl sulfate] | 173.4 Å² | – | – | – | –
CC(C)c1c(C(=O)Nc2ccccc2)c(-c2ccccc2)c(-c2ccc(F)cc2)n1CC[C@@H](O)C[C@@H](O)CC(=O)O [Atorvastatin calcium] | 228.6 Å² | 232.2 Å² | 229.8 Å² | 230.3 Å² | collision cross section in nitrogen [5]: 224.3 Å²
CC(C)(c1ccccc1)c1cc(-n2nc3ccccc3n2)c(O)c(C(C)(C)c2ccccc2)c1 | 222.1 Å² | 223.4 Å² | 218 Å² | 218 Å² | –
CCCCC(=O)O[C@]1(C(=O)CO)[C@@H](C)C[C@H]2[C@@H]3CCC4=CC(=O)C=C[C@]4(C)[C@@]3(F)[C@@H](O)C[C@@]21C [Betamethasone valerate] | 215.5 Å² | – | – | – | –
O=C(O)c1cccc(N(Cc2cccnc2)c2ccc(OC(F)F)c(OC(F)F)c2)c1 | 202.6 Å² | 205.9 Å² | 201.3 Å² | 200.4 Å² | –
CCCCCCCCCCCC[N+](C)(C)CCCCCCCCCCCC [Didodecyldimethylammonium bromide] | – | – | – | – | collision cross section in nitrogen [6]: 225.6 Å²
O=C(c1ccc(O)cc1)c1ccc(O)cc1O [2,4,4'-Trihydroxybenzophenone] | 152.8 Å² | – | – | – | –
CCCCCCCCCCCCCCCC[n+]1ccccc1 [Cetylpyridinium bromide] | – | – | – | – | collision cross section in nitrogen [7]: 193.4 Å²; collision cross section in nitrogen [6]: 194.3 Å²
COP(=S)(OC)Oc1ccc(SC)c(C)c1 [Fenthion] | – | 166.3 Å² | – | 161.6 Å² | –
CC[N+](CC)(CC)Cc1ccccc1 [Benzyl trialkyl ammonium compound C2:C2:C2 (BTAAC C2:C2:C2)] | – | – | – | – | collision cross section in nitrogen [6]: 143.1 Å²

SMILES | collision cross section in nitrogen [1] | collision cross section in nitrogen [2] | collision cross section in nitrogen [3] | collision cross section in nitrogen [4] | further results
CNC(=O)ON=C(SC)C(=O)N(C)C [Oxamyl] | – | 150.9 Å² | – | – | –
CCCCc1c(C)nc(NCC)nc1OS(=O)(=O)N(C)C [Bupirimate] | 175.9 Å² | 181.8 Å² | 175.8 Å² | 175.8 Å² | –
N=C(Nc1ccccc1)Nc1ccccc1 [1,3-Diphenylguanidine] | – | – | 150.7 Å² | 150.8 Å² | –
Cc1cc(C2CC2)nc(Nc2ccccc2)n1 [Cyprodinil] | – | – | 153.1 Å² | 153.4 Å² | –
CCCCCCCCCCCC(=O)N(CC)CC [N,N-Diethyldodecanamide] | – | 179.4 Å² | 179.7 Å² | 179.1 Å² | –
OCC(CO)n1cnc(-c2ccc(F)cc2)c1-c1ccnc(Oc2ccccc2)n1 | – | 191 Å² | 197.6 Å² | 197.1 Å² | –
Cc1ccc(O)cc1C [3,4-Dimethylphenol] | 128.7 Å² | – | – | – | –
CCCC[P+](CCCC)(CCCC)CCCC [Tetrabutylphosphonium chloride] | – | – | – | – | collision cross section in nitrogen [7]: 172.4 Å²
O=C(NC(=O)c1c(F)cccc1F)Nc1cc(Cl)c(Oc2ncc(C(F)(F)F)cc2Cl)c(Cl)c1 [Chlorfluazuron] | 224.4 Å² | 225.6 Å² | – | 221.8 Å² | –
O=[N+]([O-])O [Copper(II) nitrate trihydrate] | 104.1 Å² | – | – | – | –
CCCCCCCCOC(=O)c1ccccc1C(=O)OCCCCCCCC [Di-n-octyl phthalate] | – | 214.6 Å² | – | – | –
CNCCCC12CCC(c3ccccc31)c1ccccc12 [Maprotiline hydrochloride] | – | – | 164.1 Å² | 164.3 Å² | –
CC(C)c1ccc(S(=O)(=O)O)cc1 [4-Isopropylbenzenesulfonic acid] | 147.7 Å² | – | – | – | –
O=C(Nc1ccc2ccccc2c1)c1ccc(Cl)cc1Cl [2,4-Dichloro-N-(naphthalene-2-yl)benzamide] | – | 184.5 Å² | – | 171.9 Å² | –
CCOc1ccc2c(ccc(C=Cc3cccc([N+](=O)[O-])c3)[n+]2C)c1 [Pinakryptol Yellow] | – | – | – | – | collision cross section in nitrogen [6]: 189.2 Å²
CCC(Cc1c(I)cc(I)c(N)c1I)C(=O)O (stereo not given) [Iopanoic acid] | – | – | – | – | collision cross section in nitrogen [5]: 171.5 Å²
O=[N+]([O-])c1c2ccccc2cc2ccccc12 [9-Nitroanthracene] | 145.1 Å² | – | 145.5 Å² | – | –

Continued, in another order:

collision cross section in nitrogen [1] | collision cross section in nitrogen [2] | collision cross section in nitrogen [3] | collision cross section in nitrogen [4] | SMILES | further results
208 Å² | – | – | – | CCCCCCCCSCc1cc(C)c(O)c(CSCCCCCCCC)c1 [2-Methyl-4,6-bis[(octylthio)methyl]phenol] | –
– | 194.6 Å² | – | – | CC(C)C(OC(=O)c1ccccc1)C(C)(C)COC(=O)c1ccccc1 (stereo not given) [2,2,4-Trimethylpentane-1,3-diyl dibenzoate] | –
– | 195.1 Å² | 182.1 Å² | 181.9 Å² | CCCCCC(C)OC(=O)COc1ccc(Cl)c2cccnc12 (stereo not given) [Cloquintocet-mexyl] | –
118.9 Å² | – | – | – | Oc1cccc(O)c1 [Resorcinol] | –
155.5 Å² | 164.9 Å² | 154.1 Å² | 154.5 Å² | CCOC(=O)C1=NN(c2ccccc2)C(=O)C1 [Ethyl 5-oxo-1-phenyl-4,5-dihydro-1H-pyrazole-3-carboxylate] | –
181.8 Å² | – | – | 179.8 Å² | O=S1(=O)OC(c2ccc(O)cc2)(c2ccc(O)cc2)c2ccccc21 [Phenol Red sodium salt] | –
– | 193.9 Å² | – | – | CCC(=O)Oc1ccc(/C(CC)=C(\CC)c2ccc(OC(=O)CC)cc2)cc1 [Diethylstilbestrol dipropionate] | –
161.1 Å² | – | – | – | CCCCCCOC(=O)c1ccc(O)cc1 [Hexylparaben] | –
118.5 Å² | – | 119.5 Å² | 120.2 Å² | Oc1ccnc(O)c1 [2,4-Dihydroxypyridine] | –
162.7 Å² | – | – | – | CCCCCCCCCCCSCC(=O)O [3-Thiatetradecanoic acid] | –
131.7 Å² | – | – | – | Cc1cc(O)cc(C)c1Cl [4-Chloro-3,5-dimethylphenol] | –
177 Å² | 191.4 Å² | 179 Å² | 178.2 Å² | COC(=O)Nc1nc2cc(S(=O)c3ccccc3)ccc2[nH]1 (stereo not given) [Oxfendazole] | –
– | – | 158.5 Å² | 159.3 Å² | Clc1cc(Cl)c2c(c1)N=C1CCCCCN1C2 | –
168.6 Å² | 168.6 Å² | 166.8 Å² | 166.8 Å² | CC(O)CN(CCN(CC(C)O)CC(C)O)CC(C)O (stereo not given) [1,1′,1′′,1′′′-(Ethylenedinitrilo)tetrakis(2-propanol)] | –
209.1 Å² | 211 Å² | 214.2 Å² | 213.8 Å² | Cc1cc2c(cc1C(F)(F)F)N(C(=O)Nc1ccc(Oc3cccnc3C)nc1)CC2 | –
– | – | – | 153.5 Å² | C(=C(c1ccccc1)c1ccccc1)c1ccccc1 [Triphenylethylene] | –
– | 188.1 Å² | 196.7 Å² | 196.8 Å² | Cc1nccn1-c1ccc(Sc2cccc(C3(C(N)=O)CCOCC3)c2)cc1 | –
145 Å² | – | – | 149.1 Å² | NNC(=O)c1cccc(C(=O)NN)c1 [Isophthalyl dihydrazide] | –
– | 146.7 Å² | 136.3 Å² | 137.3 Å² | Cn1c(=O)c2[nH]cnc2n(C)c1=O [Theophylline] | –
– | 160.3 Å² | – | 157.8 Å² | CN(C)CCN(Cc1cccs1)c1ccccn1 [Methapyrilene fumarate] | –
– | 162 Å² | 149.3 Å² | – | CCCCN(CCC(=O)OCC)C(C)=O [Ethyl 3-(N-butylacetamido)propionate] | –
– | 224.2 Å² | – | – | CCCCC(CC)COC(=O)CCCCCCCCC(=O)OCC(CC)CCCC (stereo not given) [Bis(2-ethylhexyl) decanedioate] | –
146.9 Å² | – | – | – | CCCCCc1ccc(O)cc1 [4-Pentylphenol] | –
138.7 Å² | – | – | – | Cc1ccc(C(C)(C)C)c(O)c1 [2-tert-Butyl-5-methylphenol] | –
314.1 Å² | 318.1 Å² | – | – | OC[C@H]1O[C@@H]2O[C@H]3[C@H](O)[C@@H](O)[C@@H](O[C@H]4[C@H](O)[C@@H](O)[C@@H](O[C@H]5[C@H](O)[C@@H](O)[C@@H](O[C@H]6[C@H](O)[C@@H](O)[C@@H](O[C@H]7[C@H](O)[C@@H](O)[C@@H](O[C@H]8[C@H](O)[C@@H](O)[C@@H](O[C@H]9[C@H](O)[C@@H](O)[C@@H](O[C@H]1[C@H](O)[C@H]2O)O[C@@H]9CO)O[C@@H]8CO)O[C@@H]7CO)O[C@@H]6CO)O[C@@H]5CO)O[C@@H]4CO)O[C@@H]3CO [gamma-Cyclodextrin] | –
